Experiment [1] has as its system Klebsiella pneumoniae Kpn St147 (NDM-1 and KPC-2). The experiment can be described thus: MIC determination of cefepime with zinc chelator and avibactam (checkerboard, broth microdilution). The format is cell-based. The settings on record: with FEP and zinc chelator. The procedure:
(§1) Antimicrobial susceptibility testing (AST) by broth microdilution was performed according to The European Committee on Antimicrobial Susceptibility Testing. Reading guide for broth microdilution. Version 4.0, 2022 (see: http://www.eucast.org).
(§2) Checkerboard 96-well plates (Corning 3788) were made by conducting serial two-fold dilutions of cefepime in cation-adjusted Mueller Hinton II broth (caMHB; Thermo Scientific, T3462), in columns across the microtiter plate (64-0.03 μg/ml). Additionally, avibactam was added to rows 3 to 8 in concentrations of 64, 16, 8, 4, 1 and 0.25 μg/ml, respectively. The zinc chelator was added to the wells of the plate, where applicable. Three plates were made per experiment, one without the zinc chelator (plate 1), one with 16 μg/ml of the zinc chelator (plate 2) and one with 32 μg/ml of the zinc chelator (plate 3). The first row in all plates was used as a positive control for cefepime only, and the second row included the zinc chelator in addition to cefepime (no avibactam added to rows 1 or 2). The zinc chelator was added at the indicated concentration, to rows 3-8 of plates 2 and 3.
The effect of the combination of zinc chelator/FEP/avibactam was tested on a clinically isolated Klebsiella pneumoniae Kpn St147 actively constitutionally expressing the two resistance mechanisms NDM-1 and KPC-2 simultaneously. As a negative control, bacteria+FEP was tested alone. As a positive control, bacteria+FEP+zinc chelator was used. In Tables 1 and 2, concentrations (μg/ml) of FEP are given in the top row left to right and avibactam concentrations (μg/ml) are given top to bottom in column 1.
(§3) The fractional inhibitory concentration (FIC) is defined as the concentration that kills when used in combination with another agent divided by the concentration that has the same effect when used alone. The FIC index (FICI) for the combination of two agents is the sum of their individual FIC values. […] The European Committee for Antimicrobial Susceptibility Testing (EUCAST) of the European Society of Clinical Microbiology and Infectious Diseases (ESCMID) 2000 adopts the following definitions to determine the susceptibility of bacteria to an antimicrobial agent (see EUCAST Definitive Document E. Def 1.2: Terminology relating to methods for the determination of susceptibility of bacteria to antimicrobial agents. Clin. Microbiol. Infect. 2000; 6(9): 503-508): • FICI value≤0.5; synergy • 0.5<FICI value≤1; additive effect • 1<FICI value≤2; indifferent effect • FICI≥2; antagonistic effect
To test for synergy, all data were subjected to the following formula in which A=zinc chelator; B=cefepime; and C=avibactam:
(§4) ΣFICI=MICA(combination)/MICA (alone)+MICB(combination)/MICB (alone)+MICC(combination)/MICC (alone)

Experiment [2] shares this test system. The experiment can be described thus: MIC determination of ceftazidime with zinc chelator and avibactam (checkerboard, broth microdilution). Format: cell-based. The settings on record: with CAZ and zinc chelator.
Excerpt: as §3, §1
as §2, with “CAZ” for “cefepime”, “Three plates were made per experiment, one without the zinc chelator (plate 1), one with 16 μg/ml of the zinc chelator (plate 2) and one with 32 μg/ml of the zinc chelator (plate 3).” left out, “concentration” for “concentration,”
The effect of the combination of zinc chelator/CAZ/avibactam was tested on a clinically isolated Klebsiella pneumoniae Kpn St147 actively constitutionally expressing the two resistance mechanisms NDM-1 and KPC-2 simultaneously. As a negative control, bacteria+CAZ was tested alone. As a positive control, bacteria+CAZ+zinc chelator was used. In Tables 3 and 4, concentrations (μg/ml) of CAZ are given in the top row left to right and avibactam concentrations (μg/ml) are given top to bottom in column 1.
as §4

In another experiment the test system is NDM. The settings on record: cited from earlier work.
In experiment [3] the test system is gram-negative bacteria with MBL, for example Klebsiella pneumoniae, E. coli and Pseudomonas aeruginosa. Particulars: meropenem used alone; cited from earlier work.
For a further experiment, the system named is MBL-producers. Particulars: in combination with cefepime; cited from earlier work.
The test system of the next experiment is MBL class IMP. The settings on record: in combination with cefepime; cited from earlier work.

On to `NC(=O)[C@@H]1CC[C@@H]2CN1C(=O)N2OS(=O)(=O)O` [Avibactam, avibactam], for which the “FICI Avibactam” value in experiment [1] (avibactam 0.25 μg/mL) is given as 0.0001; in experiment [1] (avibactam 1 μg/mL) it was 0.0005; in experiment [1] (avibactam 4 μg/mL), 0.0020; in experiment [1] (avibactam 8 μg/mL) it was 0.0039; in experiment [1] (avibactam 16 μg/mL) it was 0.0078; in experiment [2] (avibactam 0.25 μg/mL), 0.0001. Further, the “FICI Avibactam” value in experiment [2] (avibactam 1 μg/mL) is on record as 0.0005; in experiment [2] (avibactam 4 μg/mL), 0.0020; in experiment [2] (avibactam 8 μg/mL) it was 0.0039; in experiment [2] (avibactam 16 μg/mL), 0.0078.

As to `N[C@@H](CN[C@@H](CN[C@@H](CC(=O)O)C(=O)O)C(=O)O)C(=O)O` [aspergillomarasmine A], in the experiment with NDM (mouse models), the in vivo activity result is “shown in vivo activity in mouse models”. The “doses required to reverse carbapenem resistance” value with NDM (mouse, in vivo) is on record as “relatively high doses”.

In the case of `C[C@@H](O)[C@H]1C(=O)N2C(C(=O)O)=C(S[C@@H]3CN[C@H](C(=O)N(C)C)C3)[C@H](C)[C@H]12` [meropenem], the “sensitivity of gram-negative bacteria with MBL” value in experiment [3] is reported as “resistant to the antibiotic”.

In the case of `NCCN[C@H]1CC[C@H](CC(=O)N[C@H]2Cc3cccc(C(=O)O)c3OB2O)CC1` [taniborbactam], the “activity against MBL-producers” value in the experiment on MBL-producers is given as “potent activity”. The “effect against MBL class IMP” value in the experiment with MBL class IMP is “no effect”.

Values taken from patent US20260325538A1, “THERAPY” (priority 2023, published 2026).
